# Source: ChEMBL document CHEMBL1201862, “PubChem BioAssay data set” (2004)
#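 Tested at 5 concentrations; 48 h exposure; 96-well plates; endpoints linearly interpolated, else capped at highest concentration. At the GI50, growth is halved.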 Calls of active or inactive are those of the source. Cut-off read from the data, not from the text of the source: active = GI50 up to about 1.1 µM and inactive = higher.
# Columns and labels:
# Experiment in all cases: inhibition of tumour cell growth, NCI panel, 48 h
# A498 = system: A498
# ACHN = system: ACHN
# CAKI-1 = system: CAKI-1
# DU-145 = system: DU-145
# HCT-116 = system: HCT-116
# HCT-15 = system: HCT-15
# HL-60 = system: HL-60
# K562 = system: K562
# KM12 = system: KM12
# LOX IMVI = system: LOX IMVI
# NCI-H226 = system: NCI-H226
# NCI-H460 = system: NCI-H460
# OVCAR-3 = system: OVCAR-3
# PC-3 = system: PC-3
# RPMI-8226 = system: RPMI-8226
# SF-539 = system: SF-539
# SK-OV-3 = system: SK-OV-3
# SW-620 = system: SW-620
# U-251 = system: U-251
# Malme-3M = system: Malme-3M
Structure (SMILES),GI50 (A498),GI50 (ACHN),GI50 (CAKI-1),GI50 (DU-145),GI50 (HCT-116),GI50 (HCT-15) [µM],GI50 (HL-60),GI50 (K562),GI50 (KM12),GI50 (LOX IMVI),GI50 (NCI-H226),GI50 (NCI-H460),GI50 (OVCAR-3),GI50 (PC-3),GI50 (RPMI-8226),GI50 (SF-539),GI50 (SK-OV-3),GI50 (SW-620),GI50 (U-251),GI50 (Malme-3M)
CC1=NN(c2cccc(Cl)c2)C(=N/c2nc3ccccc3s2)/C1=C\c1ccccc1O,23.2 µM (inactive),25.6 µM (inactive),33.7 µM (inactive),43.8 µM (inactive),26.7 µM (inactive),27.6,28.1 µM (inactive),37 µM (inactive),38.9 µM (inactive),19.9 µM (inactive),22.2 µM (inactive),27.1 µM (inactive),19.2 µM (inactive),20.5 µM (inactive),34.8 µM (inactive),42.8 µM (inactive),26 µM (inactive),31.6 µM (inactive),23.8 µM (inactive),
Cc1cc(C)nc(SCC(=O)OC2CC(C)CCC2C(C)C)n1 (configuration not stated),18.1 µM (inactive),18.7 µM (inactive),20.3 µM (inactive),34.3 µM (inactive),19.2 µM (inactive),15.6,19.1 µM (inactive),20 µM (inactive),20.1 µM (inactive),20 µM (inactive),,18.8 µM (inactive),14.3 µM (inactive),28.3 µM (inactive),19.3 µM (inactive),,23.9 µM (inactive),19.9 µM (inactive),22.5 µM (inactive),21.6 µM (inactive)
C=CC[C@H]1[C@H](O[Si](C)(C)C(C)(C)C)C=CC(=O)[C@@H]1CC(=O)N(Cc1ccccc1)Cc1ccccc1,57.5 µM (inactive),15 µM (inactive),12.4 µM (inactive),27.2 µM (inactive),8.2 µM (inactive),9.73,5.48 µM (inactive),4.69 µM (inactive),15.9 µM (inactive),12.5 µM (inactive),11.7 µM (inactive),20.6 µM (inactive),15.1 µM (inactive),10.4 µM (inactive),9.89 µM (inactive),25.1 µM (inactive),26.1 µM (inactive),26.7 µM (inactive),19.3 µM (inactive),
[O-]c1c[n+](-c2ccccc2)no1,> 100 µM (inactive),> 100 µM (inactive),> 100 µM (inactive),> 100 µM (inactive),> 100 µM (inactive),> 100,> 100 µM (inactive),> 100 µM (inactive),> 100 µM (inactive),> 100 µM (inactive),,> 100 µM (inactive),> 100 µM (inactive),> 100 µM (inactive),> 100 µM (inactive),> 100 µM (inactive),> 100 µM (inactive),> 100 µM (inactive),> 100 µM (inactive),> 100 µM (inactive)
CC(=O)Oc1cc(C(F)(F)F)ccc1C(=O)OC1(C)OC(=O)c2ccc(C(F)(F)F)cc2O1 (configuration not stated),> 100 µM (inactive),> 100 µM (inactive),> 100 µM (inactive),> 100 µM (inactive),> 100 µM (inactive),> 100,> 100 µM (inactive),> 100 µM (inactive),> 100 µM (inactive),> 100 µM (inactive),> 100 µM (inactive),> 100 µM (inactive),> 100 µM (inactive),> 100 µM (inactive),,> 100 µM (inactive),> 100 µM (inactive),> 100 µM (inactive),> 100 µM (inactive),> 100 µM (inactive)
Cc1cn(C2CC(SCCO)C(CO)O2)c(=O)[nH]c1=O (configuration not stated),> 100 µM (inactive),> 100 µM (inactive),> 100 µM (inactive),> 100 µM (inactive),> 100 µM (inactive),> 100,> 100 µM (inactive),> 100 µM (inactive),> 100 µM (inactive),,> 100 µM (inactive),> 100 µM (inactive),> 100 µM (inactive),> 100 µM (inactive),> 100 µM (inactive),> 100 µM (inactive),> 100 µM (inactive),> 100 µM (inactive),> 100 µM (inactive),> 100 µM (inactive)
CC1=NN(c2nc(N)nc(C(C)Cl)n2)C(C)(C)C1 (configuration not stated),> 100 µM (inactive),> 100 µM (inactive),> 100 µM (inactive),> 100 µM (inactive),> 100 µM (inactive),> 100,> 100 µM (inactive),85.9 µM (inactive),> 100 µM (inactive),> 100 µM (inactive),> 100 µM (inactive),> 100 µM (inactive),,> 100 µM (inactive),> 100 µM (inactive),> 100 µM (inactive),> 100 µM (inactive),> 100 µM (inactive),> 100 µM (inactive),
C=C(C)/C=C/C(O)[C@](C)(O)[C@H]1[C@H](O)C[C@@]2(C)[C@@H]3CCc4c(cc(OC5OC(CO)C(O)C(O)C5O)c(O)c4C)C3(C)C(=O)C[C@]12C (some centres not stated),> 100 µM (inactive),> 100 µM (inactive),> 100 µM (inactive),> 100 µM (inactive),> 100 µM (inactive),> 100,,> 100 µM (inactive),> 100 µM (inactive),> 100 µM (inactive),> 100 µM (inactive),> 100 µM (inactive),> 100 µM (inactive),> 100 µM (inactive),,96.4 µM (inactive),> 100 µM (inactive),> 100 µM (inactive),> 100 µM (inactive),> 100 µM (inactive)
CC1(C)OCC(C(O)C2OC(C)(C)OC2C=O)O1 (configuration not stated),> 100 µM (inactive),> 100 µM (inactive),,> 100 µM (inactive),> 100 µM (inactive),> 100,,> 100 µM (inactive),> 100 µM (inactive),> 100 µM (inactive),> 100 µM (inactive),,> 100 µM (inactive),> 100 µM (inactive),> 100 µM (inactive),,> 100 µM (inactive),> 100 µM (inactive),> 100 µM (inactive),> 100 µM (inactive)
CC1(C)Cc2c(cnn2-c2ccc(C(F)(F)F)cc2)-c2[nH]c(-c3ccc(O)cc3)nc21,20.4 µM (inactive),14.6 µM (inactive),17.4 µM (inactive),17.5 µM (inactive),13.1 µM (inactive),11.1,4.72 µM (inactive),5.15 µM (inactive),13 µM (inactive),17.8 µM (inactive),27.2 µM (inactive),14.4 µM (inactive),13.9 µM (inactive),16 µM (inactive),,,21.4 µM (inactive),14.5 µM (inactive),12.3 µM (inactive),14.6 µM (inactive)
CC[C@@H]1/C=C/C=C/C[C@H](C)[C@@H](O)[C@@H](C)C(=O)[C@H](C)[C@@H](O)[C@H](C)C(=O)[C@H](C)[C@@H](O)[C@H](C)/C=C/C(=O)O[C@H]2[C@@H](C)[C@@H](CC1)O[C@@]1(CC[C@@H](C)[C@@H](CC(C)O)O1)[C@@H]2C (some centres not stated),0.0989 µM (active),0.17 µM (active),4.15 µM (inactive),3.37 µM (inactive),2.58 µM (inactive),4.06,0.00847 µM (active),0.00504 µM (active),3.41 µM (inactive),5.83 µM (inactive),,2.17 µM (inactive),2.62 µM (inactive),0.00678 µM (active),0.057 µM (active),6.46 µM (inactive),7.76 µM (inactive),5.32 µM (inactive),0.00361 µM (active),6.34 µM (inactive)
COc1ccc(S(=O)(=O)Nc2ccc(-c3csc(N4C(=O)/C(=C/c5ccccc5[N+](=O)[O-])N=C4c4ccccc4)n3)cc2)cc1Cl,23.8 µM (inactive),50.5 µM (inactive),> 100 µM (inactive),83 µM (inactive),38.8 µM (inactive),29,23.2 µM (inactive),39.5 µM (inactive),50.6 µM (inactive),34.8 µM (inactive),> 100 µM (inactive),40.8 µM (inactive),26 µM (inactive),32.6 µM (inactive),,80.2 µM (inactive),> 100 µM (inactive),46 µM (inactive),37.2 µM (inactive),58.9 µM (inactive)
CC(=O)Oc1ccc(C2SCc3nc4ccccc4n32)cc1 (configuration not stated),27.2 µM (inactive),30.8 µM (inactive),24.4 µM (inactive),51.5 µM (inactive),23.3 µM (inactive),25.8,10.6 µM (inactive),7.23 µM (inactive),15.3 µM (inactive),29.6 µM (inactive),,41.1 µM (inactive),24.4 µM (inactive),24.2 µM (inactive),14.5 µM (inactive),41 µM (inactive),26.8 µM (inactive),35.8 µM (inactive),25.6 µM (inactive),30.2 µM (inactive)
O=C(O)CSC(CC(=O)c1ccc(Cl)cc1)c1ccc(Cl)cc1 (configuration not stated),41.6 µM (inactive),79.1 µM (inactive),35.3 µM (inactive),34.8 µM (inactive),5.77 µM (inactive),22.1,2.37 µM (inactive),32.1 µM (inactive),8.07 µM (inactive),17.3 µM (inactive),,30.8 µM (inactive),20.7 µM (inactive),37.4 µM (inactive),6.95 µM (inactive),36.6 µM (inactive),36.5 µM (inactive),4.17 µM (inactive),29 µM (inactive),
Cc1ccc(C2(O)CS/C(=N\C34CC5CC(CC(C5)C3)C4)N2C(P(=O)(O)O)P(=O)(O)O)cc1 (configuration not stated),82.8 µM (inactive),> 100 µM (inactive),> 100 µM (inactive),> 100 µM (inactive),37.1 µM (inactive),> 100,37.7 µM (inactive),42.7 µM (inactive),> 100 µM (inactive),,> 100 µM (inactive),41.3 µM (inactive),> 100 µM (inactive),79.3 µM (inactive),> 100 µM (inactive),> 100 µM (inactive),72.8 µM (inactive),> 100 µM (inactive),38.6 µM (inactive),63.7 µM (inactive)
